“And” between values parts separate entries of the source, which are not always exact repeats. Identical values can stand only once.
Legend:
[1] = molecular target: Sodium-dependent noradrenaline transporter (Homo sapiens, UniProt P23975)
[2] = molecular target: 5-hydroxytryptamine receptor 7 (Homo sapiens, UniProt P34969)
[3] = molecular target: T1, Alpha-2A adrenergic receptor (Homo sapiens, UniProt P08913)
T1 sequence (P08913 whole entry): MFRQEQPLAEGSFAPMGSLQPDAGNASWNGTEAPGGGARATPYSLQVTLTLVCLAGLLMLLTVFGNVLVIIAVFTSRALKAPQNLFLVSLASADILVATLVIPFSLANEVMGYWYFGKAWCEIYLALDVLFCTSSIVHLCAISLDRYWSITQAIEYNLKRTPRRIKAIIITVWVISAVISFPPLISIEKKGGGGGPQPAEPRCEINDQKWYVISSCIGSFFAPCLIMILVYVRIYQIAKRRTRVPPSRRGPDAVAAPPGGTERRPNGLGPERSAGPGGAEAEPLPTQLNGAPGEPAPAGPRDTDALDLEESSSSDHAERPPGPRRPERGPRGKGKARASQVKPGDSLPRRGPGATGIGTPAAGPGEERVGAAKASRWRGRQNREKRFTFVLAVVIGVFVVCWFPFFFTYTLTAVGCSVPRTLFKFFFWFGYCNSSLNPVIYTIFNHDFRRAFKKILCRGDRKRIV

[4] = molecular target: T2, Alpha-2C adrenergic receptor (Homo sapiens, UniProt P18825)
T2 sequence (P18825 whole entry): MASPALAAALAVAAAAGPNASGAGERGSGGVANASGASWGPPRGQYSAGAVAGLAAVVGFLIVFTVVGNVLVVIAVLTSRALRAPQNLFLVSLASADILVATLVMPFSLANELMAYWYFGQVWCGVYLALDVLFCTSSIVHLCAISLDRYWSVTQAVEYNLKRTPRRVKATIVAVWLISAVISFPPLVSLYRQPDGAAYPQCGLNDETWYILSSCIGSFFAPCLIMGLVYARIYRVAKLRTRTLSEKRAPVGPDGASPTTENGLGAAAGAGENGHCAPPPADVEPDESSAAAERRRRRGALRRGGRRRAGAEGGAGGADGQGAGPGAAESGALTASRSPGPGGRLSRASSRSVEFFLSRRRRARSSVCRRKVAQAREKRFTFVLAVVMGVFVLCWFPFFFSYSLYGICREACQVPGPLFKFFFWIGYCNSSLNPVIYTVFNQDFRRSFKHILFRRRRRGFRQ

[5] = molecular target: Sodium-dependent serotonin transporter (Homo sapiens, UniProt P31645)
Chain of Sodium-dependent serotonin transporter (P31645 whole entry): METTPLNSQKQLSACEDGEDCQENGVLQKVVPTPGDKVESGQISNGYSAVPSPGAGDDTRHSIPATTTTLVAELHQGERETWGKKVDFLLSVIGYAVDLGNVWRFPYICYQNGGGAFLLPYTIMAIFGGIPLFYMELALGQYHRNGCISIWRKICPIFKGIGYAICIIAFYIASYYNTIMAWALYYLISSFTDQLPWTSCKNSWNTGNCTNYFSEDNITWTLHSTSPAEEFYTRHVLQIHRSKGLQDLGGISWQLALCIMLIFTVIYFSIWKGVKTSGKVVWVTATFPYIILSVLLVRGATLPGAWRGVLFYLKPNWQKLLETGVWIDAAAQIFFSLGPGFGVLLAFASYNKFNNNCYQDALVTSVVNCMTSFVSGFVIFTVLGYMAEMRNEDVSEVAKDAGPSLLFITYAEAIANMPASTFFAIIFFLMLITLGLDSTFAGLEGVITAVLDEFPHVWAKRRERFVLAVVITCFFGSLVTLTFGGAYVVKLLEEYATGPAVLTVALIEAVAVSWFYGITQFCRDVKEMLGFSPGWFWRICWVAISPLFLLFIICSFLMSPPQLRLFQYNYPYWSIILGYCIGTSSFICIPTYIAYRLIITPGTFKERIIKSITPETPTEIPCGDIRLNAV

Chain of Sodium-dependent noradrenaline transporter (P23975 whole entry): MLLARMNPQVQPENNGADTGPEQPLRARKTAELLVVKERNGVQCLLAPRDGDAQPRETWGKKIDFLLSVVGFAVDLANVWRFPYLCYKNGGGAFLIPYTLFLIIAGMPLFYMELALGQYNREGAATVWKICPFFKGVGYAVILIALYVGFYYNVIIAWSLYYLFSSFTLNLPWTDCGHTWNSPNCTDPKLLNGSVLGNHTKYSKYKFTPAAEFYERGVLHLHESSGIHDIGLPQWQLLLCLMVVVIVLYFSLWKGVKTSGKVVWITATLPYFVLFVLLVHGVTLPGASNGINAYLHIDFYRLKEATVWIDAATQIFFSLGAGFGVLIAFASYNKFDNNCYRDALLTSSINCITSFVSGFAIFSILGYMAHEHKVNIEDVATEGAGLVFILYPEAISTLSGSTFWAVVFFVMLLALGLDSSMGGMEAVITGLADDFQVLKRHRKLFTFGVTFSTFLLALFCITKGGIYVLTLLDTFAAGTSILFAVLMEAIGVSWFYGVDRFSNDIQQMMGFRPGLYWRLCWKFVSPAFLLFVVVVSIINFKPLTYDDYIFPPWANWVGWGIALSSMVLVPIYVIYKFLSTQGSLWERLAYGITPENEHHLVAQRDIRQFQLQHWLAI
Chain of 5-hydroxytryptamine receptor 7 (P34969 whole entry): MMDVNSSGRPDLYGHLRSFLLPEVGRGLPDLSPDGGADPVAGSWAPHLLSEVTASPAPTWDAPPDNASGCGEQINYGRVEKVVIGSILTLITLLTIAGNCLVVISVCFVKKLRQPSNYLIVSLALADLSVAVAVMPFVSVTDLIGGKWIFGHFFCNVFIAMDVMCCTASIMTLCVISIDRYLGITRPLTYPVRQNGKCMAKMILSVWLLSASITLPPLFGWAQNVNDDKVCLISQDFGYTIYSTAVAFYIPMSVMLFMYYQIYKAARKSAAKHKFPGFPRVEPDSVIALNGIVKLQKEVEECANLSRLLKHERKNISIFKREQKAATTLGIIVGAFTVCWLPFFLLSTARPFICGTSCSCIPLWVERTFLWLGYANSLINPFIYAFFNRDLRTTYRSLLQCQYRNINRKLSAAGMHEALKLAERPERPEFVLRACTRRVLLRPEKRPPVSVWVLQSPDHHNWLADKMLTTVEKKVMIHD

`CC(N)C(O)c1ccccc1` [(1R, 2S)-2-Amino-1-phenyl-propan-1-ol] was tested, and the Ki [1] was 137 nM and 42.1 nM and 15 nM and 30.1 nM, the Ki [2] was 7000 nM and the Ki [3] was 3020 nM and 1330 nM and 2610 nM and 2600 nM.

For `CNC(C)C(O)c1ccccc1` (configuration not stated) [CAS_24221-86-1], the Ki [3] was 2010 nM and the Ki [4] was 708 nM and 1220 nM.

In the case of `CC(N)C(=O)c1ccccc1` (configuration not stated) [CAS_62258], the Ki [1] is reported as 12.4 nM, the Ki [2] is reported as 2700 nM and the Ki [3] is reported as 6810 nM. The Ki [4] was 765 nM and the Ki [5] was 2370 nM.

`CN[C@@H](C)Cc1ccccc1` [METHAMPHETAMINE (+)] was tested, and the Ki [1] was 12.3 nM and the Ki [5] was 736 nM.

Compound `CNC(C)C(=O)c1ccccc1` (configuration not stated) [NSC_1576] has a Ki [1] of 13.1 nM, a Ki [2] of 1000 nM and a Ki [3] of 9020 nM. For the same compound, the Ki [4] was 605 nM and the Ki [5] was 1770 nM.
